Holding throughout (type): in vivo
For data set [1], the system named is Monochoria vaginalis. Description: Test Example 1: herbicidal activity, application before weed generation in submerged conditions (symbol C). The note with it: application herbicide amount 320 g/ha. In a few lines: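 Compound emulsion was diluted to a set herbicide amount and applied to the water surface on the sowing day, into submerged (4 cm) alluvial-soil pots sown with mixed weed seeds and transplanted 2.5-leaf rice. Pots were held in a 25–30 °C greenhouse, and weeds were scored 0–5 by herbicidal ratio after 3 weeks.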

The subject of data set [2] is Monochoria vaginalis. Description: Test Example 2: herbicidal activity, application during weed generation in submerged conditions (symbol C). The note with it: Table 23; application herbicide amount 320 g/ha; grade 0-5 by criteria of Test Example 1. In a few lines:
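Scoring of herbicidal effect took place 3 weeks after treatment, using the criteria of the earlier test. Treatment was water-surface application of diluted emulsifiable compound at a set dose. Plants were at one- to two-leaf stage in submerged alluvial soil (4 cm depth), greenhouse 25-30° C.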

In data set [3] the test system is directly sowed rice plant. Put plainly: Test Example 3: effect on crop by foliage application, Wagner pot (symbol b). The note with it: application herbicide amount 320 g/ha. The method in brief: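 Greenhouse culture at 25–30 °C of seeded rice, Cyperus difformis, Leptochloa chinensis and Echinochloa crus-galli var. crus-galli, in alluvial soil held under 0.1–0.5 cm of water in a Wagner pot.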

For data set [4], the system named is Setaria viridis. Description: Test Example 4: herbicidal effect by soil treatment (symbol G). The note with it: application herbicide amount 320 g/ha. The method in brief: (§1)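 Seeds were sown in sterilized diluvial soil, covered with about 1.5 cm of soil, and the soil surface was sprayed with a water-diluted emulsion of the compound at a predetermined rate. Plants grew in a greenhouse at 25° C. to 30° C.; effects were scored visually 3 weeks after application.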

In data set [5] the test system is Avena fatua. Description: Test Example 4: herbicidal effect by soil treatment (symbol I). The note with it: application herbicide amount 320 g/ha. The method in brief: as §1
For data set [6], the system named is Chenopodium album. Put plainly: Test Example 4: herbicidal effect by soil treatment (symbol O). The note with it: application herbicide amount 320 g/ha. In a few lines: as §1
Data set [7] has as its system beet. Put plainly: Test Example 4: effect on crop by soil treatment (symbol f). The note with it: application herbicide amount 320 g/ha. In a few lines:
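Steps: fill box with sterilized diluvial soil; sow seed spot-like; cover with ~1.5 cm soil; grow in greenhouse (25° C. to 30° C.).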

Data set [8] concerns Echinochloa crus-galli var. crus-galli. Description: Test Example 5: herbicidal effect by foliage application, plastic box (symbol H). The note with it: 320 g/ha, 3 weeks after application. The method in brief: (§2)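 After sowing into sterilized diluvial soil and growing two weeks under glass at 25° C. to 30° C., seedlings receive a uniform foliar spray of diluted emulsion. Damage is judged visually three weeks on.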

The subject of data set [9] is Apera spica-venti. Description: Test Example 5: herbicidal effect by foliage application, plastic box (symbol L). The note with it: 320 g/ha, 3 weeks after application. In a few lines: as §2
Data set [10] relates to Abutilon theophrasti. Description: Test Example 5: herbicidal effect by foliage application, plastic box (symbol M). The note with it: 320 g/ha, 3 weeks after application. The method in brief:
as §2

Data set [11] has as its system corn. Description: Test Example 5: effect on crop by foliage application, plastic box (symbol c). The note with it: 320 g/ha, 3 weeks after application. In a few lines: (§3)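 Greenhouse test at 25° C. to 30° C. Seeds of crops and weeds were spot-sown in boxes of sterilized diluvial soil under roughly 1.5 cm soil cover, then grown for foliage treatment.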
In data set [12] the test system is soybean. Put plainly: Test Example 5: effect on crop by foliage application, plastic box (symbol d). The note with it: 320 g/ha, 3 weeks after application. In a few lines:
as §3

Data set [13] relates to rapeseed. Put plainly: Test Example 5: effect on crop by foliage application, plastic box (symbol g). The note with it: 320 g/ha, 3 weeks after application. In a few lines: as §3
For data set [14], the system named is Veronica persica. Description: Test Example 4: herbicidal effect by soil treatment (symbol R). The note with it: application herbicide amount 320 g/ha. The method in brief:
as §1

Turning to `Cc1cc(C)c(C2=C(O)CC(CC(=O)Cc3ccccc3)C2=O)c(C)c1` (centres unmarked) [2-015], the “Herbicidal effect grade, C: Monochoria vaginalis” value (“Herbicidal effect grade, C” for short) in data set [1] and in data set [2] was 0 (Herbicidal ratio of 5% or lower (almost no effect)) in each case. The “effect on crop b (directly sowed rice plant), grade 0-5” value (“effect on crop b” for short) in data set [3] was 4 (Herbicidal ratio of 70% or higher and lower than 90%). In data set [4], the “G: Setaria viridis, herbicidal effect grade” value (shortened to “G: Setaria viridis”) was 3 (Herbicidal ratio of 40% or higher and lower than 70%). Further, the “I: Avena fatua, herbicidal effect grade” value in data set [5] is reported as 0 (Herbicidal ratio of 5% or lower (almost no effect)). In [6], the “O: Chenopodium album, herbicidal effect grade” value (from here on “O: Chenopodium album”) was 0 (Herbicidal ratio of 5% or lower (almost no effect)). The “f: beet, effect on crop grade” value in [7] is 0 (Herbicidal ratio of 5% or lower (almost no effect)). In data set [8], the “H: Echinochloa crus-galli var. crus-galli, herbicidal effect grade” value is reported as 5 (Herbicidal ratio of 90% or more (almost completely withered)). Further, the “L: Apera spica-venti, herbicidal effect grade” value (shortened to “L: Apera spica-venti”) in [9] is 3 (Herbicidal ratio of 40% or higher and lower than 70%). Besides, the “M: Abutilon theophrasti, herbicidal effect grade” value (“M: Abutilon theophrasti” below) in data set [10] was 1 (Herbicidal ratio of 5% or higher and lower than 20%). The “c: corn, effect on crop grade” value in [11] was 4 (Herbicidal ratio of 70% or higher and lower than 90%). Moreover, the “d: soybean, effect on crop grade” value in data set [12] is 1 (Herbicidal ratio of 5% or higher and lower than 20%). In addition, the “g: rapeseed, effect on crop grade” value in data set [13] was 4 (Herbicidal ratio of 70% or higher and lower than 90%).

For `Cc1cc(C)c(C2=C(O)CC(CC(=O)C3CC3)C2=O)c(C)c1` (centres unmarked) [2-017], the “Herbicidal effect grade, C” value in [1] was 3 (Herbicidal ratio of 40% or higher and lower than 70%); in [2], 4 (Herbicidal ratio of 70% or higher and lower than 90%). Moreover, in [3], the “effect on crop b” value is given as 5 (Herbicidal ratio of 90% or more (almost completely withered)). For the same compound, the “G: Setaria viridis” value in data set [4] was 5 (Herbicidal ratio of 90% or more (almost completely withered)). In addition, the “I: Avena fatua, herbicidal effect grade” value in data set [5] is given as 0 (Herbicidal ratio of 5% or lower (almost no effect)). In data set [6], the “O: Chenopodium album” value is on record as 0 (Herbicidal ratio of 5% or lower (almost no effect)). Besides, in data set [7], the “f: beet, effect on crop grade” value was 0 (Herbicidal ratio of 5% or lower (almost no effect)). The “H: Echinochloa crus-galli var. crus-galli, herbicidal effect grade” value in data set [8] was 5 (Herbicidal ratio of 90% or more (almost completely withered)). Also, in [9], the “L: Apera spica-venti” value was 3 (Herbicidal ratio of 40% or higher and lower than 70%). Also, the “M: Abutilon theophrasti” value in data set [10] is 1 (Herbicidal ratio of 5% or higher and lower than 20%). For the same compound, the “c: corn, effect on crop grade” value in data set [11] was 2 (Herbicidal ratio of 20% or higher and lower than 40%). Besides, in [12], the “d: soybean, effect on crop grade” value is 0 (Herbicidal ratio of 5% or lower (almost no effect)). In addition, the “g: rapeseed, effect on crop grade” value in [13] is 4 (Herbicidal ratio of 70% or higher and lower than 90%).

Turning to `CC(=O)CC1CC(OC(=O)C(C)(C)C)=C(c2c(C)cc(C)cc2C)C1=O` (centres unmarked) [2-018], the “Herbicidal effect grade, C” value in data set [1] is 1 (Herbicidal ratio of 5% or higher and lower than 20%); in data set [2] it was 0 (Herbicidal ratio of 5% or lower (almost no effect)). Further, the “effect on crop b” value in data set [3] is 5 (Herbicidal ratio of 90% or more (almost completely withered)). In addition, in data set [4], the “G: Setaria viridis” value is given as 5 (Herbicidal ratio of 90% or more (almost completely withered)). In addition, in data set [5], the “I: Avena fatua, herbicidal effect grade” value is given as 0 (Herbicidal ratio of 5% or lower (almost no effect)). For the same compound, the “O: Chenopodium album” value in data set [6] is given as 0 (Herbicidal ratio of 5% or lower (almost no effect)). Moreover, the “f: beet, effect on crop grade” value in data set [7] was 0 (Herbicidal ratio of 5% or lower (almost no effect)). Besides, the “H: Echinochloa crus-galli var. crus-galli, herbicidal effect grade” value in [8] was 1 (Herbicidal ratio of 5% or higher and lower than 20%). Also, the “L: Apera spica-venti” value in data set [9] is 1 (Herbicidal ratio of 5% or higher and lower than 20%). In data set [10], the “M: Abutilon theophrasti” value was 0 (Herbicidal ratio of 5% or lower (almost no effect)). Also, in [11], the “c: corn, effect on crop grade” value was 0 (Herbicidal ratio of 5% or lower (almost no effect)). In addition, the “d: soybean, effect on crop grade” value in data set [12] is given as 0 (Herbicidal ratio of 5% or lower (almost no effect)). In data set [13], the “g: rapeseed, effect on crop grade” value is recorded as 0 (Herbicidal ratio of 5% or lower (almost no effect)).

In the case of `CCOC(=O)C(C(=O)CC1CC1)C1CC(O)=C(c2c(C)cc(C)cc2C)C1=O` (centres unmarked) [2-025], the “Herbicidal effect grade, C” value in [1] is given as 0 (Herbicidal ratio of 5% or lower (almost no effect)). The “effect on crop b” value in [3] was 4 (Herbicidal ratio of 70% or higher and lower than 90%). In data set [4], the “G: Setaria viridis” value was 5 (Herbicidal ratio of 90% or more (almost completely withered)). Also, in data set [5], the “I: Avena fatua, herbicidal effect grade” value is 0 (Herbicidal ratio of 5% or lower (almost no effect)). The “O: Chenopodium album” value in data set [6] is reported as 0 (Herbicidal ratio of 5% or lower (almost no effect)). Also, in [14], the “R: Veronica persica, herbicidal effect grade” value is given as 0 (Herbicidal ratio of 5% or lower (almost no effect)). In addition, the “f: beet, effect on crop grade” value in data set [7] is 0 (Herbicidal ratio of 5% or lower (almost no effect)). For the same compound, the “H: Echinochloa crus-galli var. crus-galli, herbicidal effect grade” value in data set [8] is 4 (Herbicidal ratio of 70% or higher and lower than 90%). Further, the “L: Apera spica-venti” value in data set [9] was 3 (Herbicidal ratio of 40% or higher and lower than 70%). Also, the “M: Abutilon theophrasti” value in data set [10] was 0 (Herbicidal ratio of 5% or lower (almost no effect)). Further, the “c: corn, effect on crop grade” value in data set [11] is 1 (Herbicidal ratio of 5% or higher and lower than 20%). Also, the “d: soybean, effect on crop grade” value in data set [12] is recorded as 0 (Herbicidal ratio of 5% or lower (almost no effect)). In addition, the “g: rapeseed, effect on crop grade” value in data set [13] was 3 (Herbicidal ratio of 40% or higher and lower than 70%).

As for `CON=C(C)CC1CC(O)=C(c2c(C)cc(C(C)=O)cc2C)C1=O` (centres unmarked) [6-026], in [1], the “Herbicidal effect grade, C” value is 0 (Herbicidal ratio of 5% or lower (almost no effect)). Moreover, the “effect on crop b” value in [3] is 5 (Herbicidal ratio of 90% or more (almost completely withered)). Further, the “G: Setaria viridis” value in data set [4] is 4 (Herbicidal ratio of 70% or higher and lower than 90%). Besides, in [5], the “I: Avena fatua, herbicidal effect grade” value is given as 0 (Herbicidal ratio of 5% or lower (almost no effect)). In addition, the “O: Chenopodium album” value in data set [6] was 0 (Herbicidal ratio of 5% or lower (almost no effect)). In [14], the “R: Veronica persica, herbicidal effect grade” value is recorded as 0 (Herbicidal ratio of 5% or lower (almost no effect)). In addition, in [7], the “f: beet, effect on crop grade” value is 0 (Herbicidal ratio of 5% or lower (almost no effect)). Further, the “H: Echinochloa crus-galli var. crus-galli, herbicidal effect grade” value in data set [8] is on record as 5 (Herbicidal ratio of 90% or more (almost completely withered)). Also, the “L: Apera spica-venti” value in data set [9] was 3 (Herbicidal ratio of 40% or higher and lower than 70%). Moreover, in data set [10], the “M: Abutilon theophrasti” value was 0 (Herbicidal ratio of 5% or lower (almost no effect)). Moreover, the “c: corn, effect on crop grade” value in data set [11] is listed as 5 (Herbicidal ratio of 90% or more (almost completely withered)). The “d: soybean, effect on crop grade” value in data set [12] is given as 0 (Herbicidal ratio of 5% or lower (almost no effect)). Also, the “g: rapeseed, effect on crop grade” value in data set [13] was 3 (Herbicidal ratio of 40% or higher and lower than 70%).

Values taken from patent publication US11000033B2, “Ketone or oxime compound, and herbicide” (NISSAN CHEMICAL CORPORATION, priority 2014, dated 2021).
